The target of the data set is APOL1. As to conditions: ASO.

Several values for one entry are separate records, joined by “and”; a condition that tells them apart may be missing. Equal entries are not always repeated. After the bases stand the sugars from the 5' end (letter, count) and the backbone: PS all phosphorothioate, else s phosphorothioate and o phosphodiester by linkage. Methylation of C is not given here. e = 2'-O-(2-methoxyethyl) (MOE); k = constrained ethyl (cEt); d = 2'-deoxy (DNA)

With “ATCAGATGGGTACTTC (sugars kddddkekekeddddd, PS)”, the target mRNA inhibition (A431, 2 µM) was found to be 43%.
With CCCTTTTGGCACCTTC (sugars k4 d9 k3, PS), the target mRNA inhibition runs as follows: (A431, 0.0625 µM) 52% and 73%; (A431, 0.25 µM) 81% and 88%; (A431, 1 µM) 94% and 93%.
With “GTTATATTTGATCCTC (sugars k3 d5 k3 d5, PS)”, the target mRNA inhibition is 86% (A431, 0.0625 µM); 93% (A431, 0.25 µM); 99% (A431, 1 µM); 100% (A431, 2 µM).
Sequence “CGCAATGCTGACTTGG (sugars kkddddkdkdkddddd, PS)” came in with a target mRNA inhibition (A431, 2 µM) of 94%.
The same measure, in the same setting: the same measure for “CAGATGGGTACTTCTG (sugars kddddkekekeddddd, PS)”: 23%; for “GAATTATGGAATTGCA (sugars kkddddekekeddddd, PS)”: 95%.
Turning to “GTATTTCTTGATGTGG (sugars kkkddddkdkdkdddd, PS)”, the target mRNA inhibition is, setting by setting: (A431, 0.0156 µM) 24%; (A431, 0.0625 µM) 59%; (A431, 0.25 µM) 82%; (A431, 1 µM) 86%; (A431, 2 µM) 92%.
As for “AACACATCATTGGGTT (sugars kkkddddkekeddddd, PS)”, the target mRNA inhibition (A431, 2 µM) came to 21%.
Take AGGTTTGGATGGAAGG (sugars k4 d9 k3, PS): the target mRNA inhibition (A431, 0.0625 µM) was determined as 36%; the target mRNA inhibition (A431, 0.25 µM) worked out at 73%; the target mRNA inhibition (A431, 1 µM) turned out to be 88%.
As for “GTGTTATATTTGATCC (sugars kkkddddkekekdddd, PS)”, for the setting “A431, 2 µM”, the target mRNA inhibition was found to be 75%.
Turning to “ATTCTCATGGTACAGG (sugars kkdddddkekeddddd, PS)”, the target mRNA inhibition amounted to 18% (A431, 0.0156 µM); 46% (A431, 0.0625 µM); 74% (A431, 0.25 µM); 90% (A431, 1 µM); 95% (A431, 2 µM).
Where the note is “A431, 2 µM”, “ATTCTATTAGAGGGCT (sugars kddddkekekeddddd, PS)” returned a target mRNA inhibition of 34%.
The same measure, in the same setting: the same measure for “ATTCTATTAGAGGGCT (sugars kkdddddkekeddddd, PS)”: 78%.
Still for that read-out and setting: the same measure for “GAATTATGGAATTGCA (sugars k2 d4 e4 k2 d4, PS)”: 95%.
TCTGTTAGATACAAAC (sugars k4 d9 k3, PS): the target mRNA inhibition (A431, 0.0625 µM) is 34%; the target mRNA inhibition (A431, 0.25 µM) was 63%; the target mRNA inhibition (A431, 1 µM) came to 78%.
In the same order, the values of GGGAAATGAACGCAAT (sugars k4 d9 k3, PS) are 22%, 60% and 83%.
Sequence “TCAGATGGGTACTTCT (sugars k2 d4 e3 k2 d5, PS)” came in with a target mRNA inhibition (A431, 2 µM) of 88%.
Still for that read-out and setting: the same measure for “GCAGTTTTGTAAGTGC (sugars k2 d4 e3 k2 d5, PS)”: 79%.
In the case of CAGTTTTGTAAGTGCA (sugars k4 d9 k3, PS), the target mRNA inhibition came to 96% (A431, 0.0625 µM); 98% (A431, 0.25 µM); 99% (A431, 1 µM).
“TTGTAAGTGCAACCAA (sugars kkdddddkekeddddd, PS)” had a target mRNA inhibition (A431, 2 µM) of 81%.
Still for that read-out and setting: the same measure for “GTTCTAACTCTTGGGC (sugars kkdddddkekeddddd, PS)”: 84%; for “GCTTTAAACTCAGGTG (sugars kdddddkekekddddd, PS)”: 92%.
In turn, “TCCGTCAATATATTCT (sugars k2 d4 e3 k2 d5, PS)” returned a target mRNA inhibition (A431, 0.0156 µM) of 27%; a target mRNA inhibition (A431, 0.0625 µM) of 59%; a target mRNA inhibition (A431, 0.25 µM) of 84%; a target mRNA inhibition (A431, 1 µM) of 93%; a target mRNA inhibition (A431, 2 µM) of 96%.
Under “A431, 2 µM”, “TGTTATATTTGATCCT (sugars kddddkekekeddddd, PS)” displayed a target mRNA inhibition of 51%.
For the setting “A431, 2 µM”, “ACACATCATTGGGTTA (sugars kkddddkekekkdddd, PS)” showed a target mRNA inhibition of 20%.
For the sequence “AGTTTTGTAAGTGCAA (sugars kkdddddkekeddddd, PS)”, the target mRNA inhibition (A431, 2 µM) came to 92%.
On the same count and under the same terms, the same measure for “TTTATACCAGTGTCTT (sugars kkddddekekeddddd, PS)”: 90%; for “CAACACATCATTGGGT (sugars kkkddddkekekdddd, PS)”: 30%.
Sequence GCAGGTTCACATGACA (sugars k4 d9 k3, PS) came in with a target mRNA inhibition (A431, 0.0625 µM) of 39%; a target mRNA inhibition (A431, 0.25 µM) of 58%; a target mRNA inhibition (A431, 1 µM) of 72%.
Turning to “TTTGTAAGTGCAACCA (sugars kkkddddkekekdddd, PS)”, the target mRNA inhibition (A431, 2 µM) is 63%.
In the case of TAGTGCTATAGAGGGA (sugars k3 d10 k3, PS), the target mRNA inhibition reads like this: (A431, 0.0625 µM) 57%; (A431, 0.25 µM) 86%; (A431, 1 µM) 95%.
For “GTTCTAACTCTTGGGC (sugars kkkddddkdkdkdddd, PS)”, under “A431, 2 µM”, the target mRNA inhibition stood at 73%.
The same measure, in the same setting: the same measure for “GTTCAAAAGCAGCATT (sugars kddddkekekeddddd, PS)”: 33%.
Consider “GCTAATTTTCTGACTG (sugars kkddddkekekddddd, PS)”, for which the target mRNA inhibition came out at 28% (A431, 0.0156 µM); 50% (A431, 0.04 µM); 63% (A431, 0.0625 µM); 86% (A431, 0.25 µM); 92% (A431, 1 µM); 96% (A431, 2 µM).
On to “TTTGTAAGTGCAACCA (sugars kdddddkekekddddd, PS)”, for which the target mRNA inhibition was 24% (A431, 0.0156 µM); 58% (A431, 0.0625 µM); 86% (A431, 0.25 µM); 96% (A431, 1 µM); 99% (A431, 2 µM).
GTGTGATAACTAGCTG (sugars k4 d9 k3, PS): the target mRNA inhibition runs as follows: (A431, 0.0625 µM) 78%; (A431, 0.25 µM) 88%; (A431, 1 µM) 93%.
Regarding TGTTTGCATTTGGGTC (sugars k4 d9 k3, PS), the target mRNA inhibition (A431, 0.0625 µM) is 90% and 83%; the target mRNA inhibition (A431, 0.25 µM) was 98% and 94%; the target mRNA inhibition (A431, 1 µM) is 99% and 96%.
The sequence “AAGTATTGCCAGCTAA (sugars k2 d4 e3 k2 d5, PS)” showed a target mRNA inhibition (A431, 2 µM) of 63%.
The same measure, in the same setting: the same measure for “CGCAATGCTGACTTGG (sugars k2 d4 e3 k2 d5, PS)”: 88%.
Consider “CTTTATACCAGTGTCT (sugars k2 d4 e3 k2 d5, PS)”, for which the target mRNA inhibition (A431, 0.0156 µM) was found to be 12%; the target mRNA inhibition (A431, 0.0625 µM) turned out to be 46%; the target mRNA inhibition (A431, 0.25 µM) was determined as 74%; the target mRNA inhibition (A431, 1 µM) worked out at 92%; the target mRNA inhibition (A431, 2 µM) came to 96%.
Sequence “CTGAAGATTGGCTCTG (sugars kkddddekekeddddd, PS)” yielded a target mRNA inhibition (A431, 2 µM) of 53%.
The same measure, in the same setting: the same measure for “TTTGTAAGTGCAACCA (sugars kkddddkekekkdddd, PS)”: 87%; for “TGTATTTCTTGATGTG (sugars kkkddddkekeddddd, PS)”: 71%.
Regarding TTACATGCACGATCTC (sugars k3 d10 k3, PS), the target mRNA inhibition was determined as 18% (A431, 0.0625 µM); 56% (A431, 0.25 µM); 78% (A431, 1 µM).
As to AATAATGGTAGGTCTA (sugars k4 d9 k3, PS), the target mRNA inhibition runs as follows: (A431, 0.0625 µM) 41%; (A431, 0.25 µM) 71%; (A431, 1 µM) 84%.
Sequence “GCTTTAAACTCAGGTG (sugars k2 d4 e4 k2 d4, PS)” displayed a target mRNA inhibition (A431, 2 µM) of 95%.

These data come from the OligoGym collection.
